Measurements as given in PMC11433283, “Sulfated Aeruginosins from Lake Kinneret: Microcystis Bloom, Isolation, Structure Elucidation, and Biological Activity” (Marine Drugs, 2024).

Target: T1, serine protease trypsin (Bos taurus, UniProt P00760)
T1 construct: purchased Sigma-Aldrich T1426
T1 sequence (P00760 24-246): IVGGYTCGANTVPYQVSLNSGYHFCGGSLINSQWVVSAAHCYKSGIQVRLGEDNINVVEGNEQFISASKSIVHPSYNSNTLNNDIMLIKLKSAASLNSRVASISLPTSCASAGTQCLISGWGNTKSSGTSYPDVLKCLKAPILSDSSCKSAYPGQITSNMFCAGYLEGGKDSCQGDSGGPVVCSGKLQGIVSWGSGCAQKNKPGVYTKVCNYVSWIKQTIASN
Experiment: Trypsin inhibition (protease inhibition assay, BAPNA substrate)
Type: biochemical
Conditions: for IC50: Tris buffer (50 mM Tris-HCl, 100 mM NaCl, 1 mM CaCl2, pH 7.5), 37 °C, 5 min pre-incubation, absorbance 405 nm, kinetic over 10 min; for IC50 values for trypsin compared with those of aeruginosins KT608A and KT608B: comparison with literature values of KT608A and KT608B [19]
Protocol: The samples for biological assays were dissolved in ethanol at a concentration of 1 mg/mL and further diluted with Tris buffer to the desired concentrations. The samples were tested for inhibition of trypsin (Cat# T1426, Sigma-Aldrich, St. Louis, MO, USA). The assay was performed in a Tris buffer (50 mM Tris-HCl, 100 mM NaCl, and 1 mM CaCl2 at pH 7.5). Benzoyl-L-arginine-p-nitroanilide hydrochloride (BAPNA Cat# 03,310 Chem-Impex Int’l Inc., Wood Dale, IL, USA), the trypsin substrate was dissolved at 1 mg/mL in 1:9 EtOH/buffer. The enzyme was dissolved in a buffer at 1 mg/mL. To each well were added 100 µL of buffer, 10 µL of enzyme, and 10 µL of sample. The plate was placed in the spectrophotometer at 37 °C. After 5 min, 100 µL of substrate solution was added to each well, and the plate was placed in the spectrophotometer for the kinetic measurement of the absorbance intensity over 10 min at a wavelength of 405 nm.

| Compound | Inhibition of trypsin (inactive at tested concentration) (at a concentration of 1.7 mM, BAPNA substrate, pH 7.5, 37 °C, 405 nm) | IC50 (BAPNA substrate) [nM] | IC50 values for trypsin compared with those of aeruginosins KT608A and KT608B |
| --- | --- | --- | --- |
| 6-Cl-Hpla-7-sulfate-2-Ile-Choi-amide [Aeruginosin KT575] | inactive |  |  |
| N=C(N)NCCCCNC(=O)[C@@H]1C[C@@H]2CC[C@@H](OS(=O)(=O)O)C[C@@H]2N1C(=O)[C@H](CCc1ccc(O)cc1)NC(=O)[C@@H](O)Cc1ccc(O)cc1 [Aeruginosin KT718, L-Hpla-L-Hty-L-Choi-6-sulfate-Agm] |  | 1430 | comparable with those of aeruginosins KT608A and KT608B |
| N=C(N)NCCCCNC(=O)[C@@H]1C[C@@H]2CC[C@@H](OS(=O)(=O)O)C[C@@H]2N1C(=O)[C@@H](Cc1ccccc1)NC(=O)[C@@H](O)Cc1ccc(O)cc1 [Aeruginosin KT688, L-Hpla-D-Phe-L-Choi-6-sulfate-agmatine] |  | 2380 | comparable with those of aeruginosins KT608A and KT608B |
